Laboratory results taken from USRE47193E1, “Selectively substituted quinoline compounds” (EISAI R&D MANAGEMENT CO., LTD., priority 2013, dated 2019).
Several values for one entry are separate records, joined by “and”; a condition that tells them apart may be missing. Equal entries are not always repeated. Where two headings read alike, the source gives them in different places.

Experiments:
[1] = system: T1, TLR7/8; assay: Subsequent human PBMC assay, various TLR7/8 ligands, IL-6 and IFN-α blockade; type: cell-based
T1 construct: other: human PBMC; ligand SL4-Ig; individual donors 1-6; average of donors; ligand RNA40-DOTAP; individual donors; ligand R848; ligand
Method: (§1) Human PBMC Cell-Based Assay. Human peripheral blood mononuclear cells (PBMC) were isolated from freshly-drawn heparinized (10 USP units/ml, Hospira, Lakeforest, Ill.) healthy donor whole blood by density gradient (Histopaque® 1077, Sigma, Inc., St. Louis, Mo.). Briefly, 25 ml blood was diluted with 15 ml PBS (without Ca^2+, Mg^2+) in a 50 ml conical tube, and 12 ml Histopaque was underlaid using a spinal needle. Tubes were centrifuged for 45 minutes at 1200 rpm (350×g), and PBMC were collected from the buffy coat. Cells were then washed twice in PBS, and red blood cells were lysed by suspension in 5 ml ammonium chloride solution (1× Red Blood Cell Lysis Buffer, eBioscience) for 5 minutes at room temperature. After a final wash in PBS, PBMC were resuspended at a final concentration of 2×10^6/ml in RPMI-1640 media with L-glutamine (Invitrogen) and supplemented with 25 mM HEPES (Mediatech, Inc, Manassas Va.), 10% fetal bovine serum (HyClone, Logan, Utah), and Penicillin-Streptomycin-Glutamine (Mediatech) and plated at 100 ul/well (2×10^5 cells/well) in tissue culture treated 96-well plates (Falcon).
(§2) Antagonist compounds solubilized and serial diluted in 100% DMSO were added in triplicate to cells to yield a final concentration of 0.1% DMSO (v/v). Hydroxychloroquine (Acros Organics) solubilized and serial diluted in PBS was added in triplicate to cells. PBMC were incubated with antagonist compounds or HCQ for 30 minutes at 37° C., 5% CO2 before adding various TLR agonist reagents in 100 ul complete media per well as follows (final concentrations indicated): R848 (Resiquimod; GLSynthesis, Worcester, Mass.) at 1 uM for TLR7 and TLR8, LPS (Sigma) at 10 ng/ml for TLR4, and CpG-2216 (InvivoGen) at 5 ug/ml for TLR9. To prepare a TLR7/8 agonist that mimics RNA-containing auto-antibody immune complexes in lupus patients, a 26-mer RNA with a sequence derived from human U1 snRNA stem loop IV [(sequence: […]-[…] (SEQ ID NO: 2) with phosphorothioate backbone] was synthesized (Dharmacon, Inc., Lafayette, Colo.), which has been shown previously to be a potent TLR7 and TLR8 agonist. This RNA molecule was diluted to 2.5 μM in serum-free RPMI, and mouse anti-human single stranded DNA monoclonal antibody (MAB3034, Millipore, Inc., Billerica, Mass.), which also cross-reacts with RNA, was added at a 1:25 dilution or at 1 ug/ml. The resulting “RNA-Ig” stimulus was incubated at room temperature for 15-30 minutes before adding to cells. PBMC were incubated with the various TLR agonists for 20 hours at 37° C., 5% CO2. Cell culture supernatants were collected, and levels of various human cytokines were assessed as indicated by standard ELISA procedure according to the manufacturer's recommended protocol (BD Biosciences, Inc., San Diego, Calif.). In a subsequent assay (Table 6) the ability of ER-899742 to block stimulation of normal PBMC by various TLR7/8 ligands, but not DNA-mediated activation of TLR9, was examined. In this assay cells were plated at 1×10^5 cells/well in 100 ul in 96-well plates.

[2] = system: T2, TLR7/8; assay: as above; type: cell-based
T2 construct: other: human PBMC; ligand SL4-Ig; individual donors 1-6; average of donors; ligand RNA40-DOTAP; individual donors; ligand R848; ligand R848
Method: as §1, §2

[3] = read-out: IC50 IFN-α Ave., ligand R848, average of donors
[4] = read-out: IC50 IFN-α Ave., ligand RNA40-DOTAP, average of donors
[5] = read-out: IC50 IFN-α Ave., ligand SL4-Ig, average of donors
[6] = read-out: IC50 IL-6 Ave., ligand R848, average of donors
[7] = read-out: IC50 IL-6 Ave., ligand RNA40-DOTAP, average of donors
[8] = read-out: IC50 IL-6 Ave., ligand SL4-Ig, average of donors

C[C@@H]1CN(c2ccc(C#N)c3ncccc23)C[C@H](C(=O)N[C@H]2CNC[C@H]2F)O1.Cl [ER-899742, (2R,6R)-4-(8-cyanoquinolin-5-yl)-N-[(3S,4R)-4-fluoropyrrolidin-3-yl]-6-methylmorpholine-2-carboxamide hydrochloride]
IC50 [1, 3]: 11 nM
IC50 [1, 4]: 13.9 nM
IC50 [1, 5]: 1.4 nM
IC50 ([1]; read-out: IC50 IFN-α, ligand R848, individual donors, hydrochloride): 12 nM and 11 nM and 10 nM
IC50 ([1]; read-out: IC50 IFN-α, ligand RNA40-DOTAP, individual donors, hydrochloride): 9.6 nM and 18 nM and 11 nM and 17 nM
IC50 ([1]; read-out: IC50 IFN-α, ligand SL4-Ig, individual donors 1-6, hydrochloride): 2.2 nM and 0.5 nM
IC50 ([2]; read-out: IC50 IL-6, ligand R848, individual donors, hydrochloride): 6.5 nM and 7 nM and 4.9 nM and 5.5 nM and 8.1 nM and 3.4 nM
IC50 ([2]; read-out: IC50 IL-6, ligand RNA40-DOTAP, individual donors, hydrochloride): 23 nM and 54 nM and 33 nM and 29 nM and 14 nM and 35 nM
IC50 ([2]; read-out: IC50 IL-6, ligand SL4-Ig, individual donors 1-6, hydrochloride): 3.2 nM and 4.3 nM and 2.5 nM and 3.3 nM and 7.7 nM
IC50 [2, 6]: 5.9 nM
IC50 [2, 7]: 31.3 nM
IC50 [2, 8]: 4.2 nM

CCN(CCO)CCCC(C)Nc1ccnc2cc(Cl)ccc12 (stereo not drawn) [HCQ, hydroxychloroquine, reference compound]
IC50 [1, 3]: 1950 nM
IC50 [1, 4]: 598 nM
IC50 [1, 5]: 392 nM
IC50 ([1]; read-out: IC50 IFN-α, ligand R848, individual donors): 1250 nM and 2570 nM and 2030 nM
IC50 ([1]; read-out: IC50 IFN-α, ligand RNA40-DOTAP, individual donors): 490 nM and 410 nM and 990 nM and 502 nM
IC50 ([1]; read-out: IC50 IFN-α, ligand SL4-Ig, individual donors 1-6): 459 nM and 324 nM
IC50 ([2]; read-out: IC50 IL-6, ligand R848, individual donors): > 10000 nM
IC50 ([2]; read-out: IC50 IL-6, ligand RNA40-DOTAP, individual donors): 10000 nM and 10800 nM and > 10000 nM and 15500 nM and 18000 nM and 6100 nM
IC50 ([2]; read-out: IC50 IL-6, ligand SL4-Ig, individual donors 1-6): 5200 nM and 3700 nM and 3200 nM and 3600 nM and 4300 nM and 4600 nM
IC50 [2, 6]: > 10000 nM
IC50 [2, 7]: 12100 nM
IC50 [2, 8]: 4100 nM
